Measured values published in the kinase profiling compilation of Christmann-Franck et al. (2016).

Assays:
Experiment in all cases: KINOMEscan competition binding
Details in all cases: compound 10.0 µM
[1] = target: AKT2 (human) (UniProt P31751)
[2] = target: AKT3 (human) (UniProt Q9Y243)
[3] = target: AURKB (human) (UniProt Q96GD4)
[4] = target: CDK17 (human) (UniProt Q00537)
[5] = target: CDK2 (human) (UniProt P24941)
[6] = target: CDK5 (human) (UniProt Q00535)
[7] = target: CLK2 (human) (UniProt P49760)
[8] = target: CSNK1A1L (human) (UniProt Q8N752)
[9] = target: CSNK1G1 (human) (UniProt Q9HCP0)
[10] = target: DCLK3 (human) (UniProt Q9C098)
[11] = target: DYRK1A (human) (UniProt Q13627)
[12] = system: EGFR (human), P00533 [L858R]
[13] = target: EIF2AK2 (human) (UniProt P19525)
[14] = target: EPHA1 (human) (UniProt P21709)
[15] = target: EPHA4 (human) (UniProt P54764)
[16] = target: EPHA6 (human) (UniProt Q9UF33)
[17] = target: FRK (human) (UniProt P42685)
Chain of FRK (human) (P42685 whole entry, looked up): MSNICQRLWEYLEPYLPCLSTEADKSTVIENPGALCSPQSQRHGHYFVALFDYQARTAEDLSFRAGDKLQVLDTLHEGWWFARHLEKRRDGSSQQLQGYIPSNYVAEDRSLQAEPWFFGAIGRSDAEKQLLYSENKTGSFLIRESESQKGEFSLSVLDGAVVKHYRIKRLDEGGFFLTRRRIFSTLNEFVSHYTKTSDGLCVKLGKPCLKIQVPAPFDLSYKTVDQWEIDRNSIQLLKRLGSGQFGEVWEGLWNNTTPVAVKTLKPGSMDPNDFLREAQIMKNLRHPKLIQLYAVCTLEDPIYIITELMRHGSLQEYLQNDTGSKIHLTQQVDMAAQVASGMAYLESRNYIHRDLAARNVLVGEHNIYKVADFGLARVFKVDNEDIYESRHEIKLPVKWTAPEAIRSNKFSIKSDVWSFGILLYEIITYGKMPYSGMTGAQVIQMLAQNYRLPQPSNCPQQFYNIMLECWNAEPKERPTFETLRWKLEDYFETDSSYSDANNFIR

[18] = target: HUNK (human) (UniProt P57058)
Chain of HUNK (human) (P57058 whole entry, looked up): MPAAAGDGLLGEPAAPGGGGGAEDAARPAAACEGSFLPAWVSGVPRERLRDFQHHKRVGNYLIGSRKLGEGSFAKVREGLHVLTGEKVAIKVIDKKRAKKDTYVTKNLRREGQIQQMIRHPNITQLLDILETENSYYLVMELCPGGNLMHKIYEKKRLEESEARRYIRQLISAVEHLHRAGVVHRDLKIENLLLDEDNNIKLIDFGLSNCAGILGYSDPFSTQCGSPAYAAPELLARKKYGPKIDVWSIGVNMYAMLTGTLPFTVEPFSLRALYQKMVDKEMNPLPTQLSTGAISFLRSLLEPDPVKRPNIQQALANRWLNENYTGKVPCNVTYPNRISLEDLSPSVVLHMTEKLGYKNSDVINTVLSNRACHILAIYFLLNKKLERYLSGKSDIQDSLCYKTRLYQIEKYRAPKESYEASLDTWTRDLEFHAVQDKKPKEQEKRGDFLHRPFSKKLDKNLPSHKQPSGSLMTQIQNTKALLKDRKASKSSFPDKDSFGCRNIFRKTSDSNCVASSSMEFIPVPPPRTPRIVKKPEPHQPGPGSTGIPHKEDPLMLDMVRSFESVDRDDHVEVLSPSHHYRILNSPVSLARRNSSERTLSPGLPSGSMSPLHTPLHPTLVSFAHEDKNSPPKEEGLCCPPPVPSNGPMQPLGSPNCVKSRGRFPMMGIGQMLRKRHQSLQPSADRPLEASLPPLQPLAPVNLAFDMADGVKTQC

[19] = target: JAK2 JH1 catalytic (human) (UniProt O60674)
Chain of JAK2 JH1 catalytic (human) (O60674 whole entry, looked up): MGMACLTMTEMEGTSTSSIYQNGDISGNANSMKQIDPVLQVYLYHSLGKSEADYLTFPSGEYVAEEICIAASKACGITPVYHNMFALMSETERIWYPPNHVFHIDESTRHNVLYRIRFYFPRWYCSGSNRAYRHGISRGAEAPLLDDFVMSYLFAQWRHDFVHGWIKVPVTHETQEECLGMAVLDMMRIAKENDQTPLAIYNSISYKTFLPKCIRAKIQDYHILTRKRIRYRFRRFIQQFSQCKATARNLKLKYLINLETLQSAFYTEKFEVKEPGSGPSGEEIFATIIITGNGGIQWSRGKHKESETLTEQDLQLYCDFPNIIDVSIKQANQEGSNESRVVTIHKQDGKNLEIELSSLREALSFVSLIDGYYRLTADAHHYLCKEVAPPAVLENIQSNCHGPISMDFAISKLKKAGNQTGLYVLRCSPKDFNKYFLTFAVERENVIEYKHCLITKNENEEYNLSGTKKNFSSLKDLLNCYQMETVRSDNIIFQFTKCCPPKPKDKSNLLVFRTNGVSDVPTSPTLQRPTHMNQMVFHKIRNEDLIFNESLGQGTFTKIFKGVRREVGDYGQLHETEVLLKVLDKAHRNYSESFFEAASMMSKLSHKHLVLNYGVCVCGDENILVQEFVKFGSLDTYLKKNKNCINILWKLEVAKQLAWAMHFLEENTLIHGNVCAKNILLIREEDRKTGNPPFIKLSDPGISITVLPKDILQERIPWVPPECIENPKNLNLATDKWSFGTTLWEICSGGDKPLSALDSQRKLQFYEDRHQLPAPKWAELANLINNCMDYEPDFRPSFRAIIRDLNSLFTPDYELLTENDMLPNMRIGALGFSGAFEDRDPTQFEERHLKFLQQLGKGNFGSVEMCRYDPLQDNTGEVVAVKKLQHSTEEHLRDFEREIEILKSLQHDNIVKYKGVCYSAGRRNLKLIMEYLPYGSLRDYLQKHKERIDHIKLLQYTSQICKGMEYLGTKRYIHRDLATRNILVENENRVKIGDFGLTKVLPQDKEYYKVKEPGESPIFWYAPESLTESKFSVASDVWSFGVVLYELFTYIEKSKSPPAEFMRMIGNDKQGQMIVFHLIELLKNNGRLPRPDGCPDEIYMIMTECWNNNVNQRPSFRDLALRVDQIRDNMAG

[20] = target: LTK (human) (UniProt P29376)
[21] = target: MAP2K3 (human) (UniProt P46734)
[22] = target: MAP3K1 (human) (UniProt Q13233)
Chain of MAP3K1 (human) (Q13233 whole entry, looked up): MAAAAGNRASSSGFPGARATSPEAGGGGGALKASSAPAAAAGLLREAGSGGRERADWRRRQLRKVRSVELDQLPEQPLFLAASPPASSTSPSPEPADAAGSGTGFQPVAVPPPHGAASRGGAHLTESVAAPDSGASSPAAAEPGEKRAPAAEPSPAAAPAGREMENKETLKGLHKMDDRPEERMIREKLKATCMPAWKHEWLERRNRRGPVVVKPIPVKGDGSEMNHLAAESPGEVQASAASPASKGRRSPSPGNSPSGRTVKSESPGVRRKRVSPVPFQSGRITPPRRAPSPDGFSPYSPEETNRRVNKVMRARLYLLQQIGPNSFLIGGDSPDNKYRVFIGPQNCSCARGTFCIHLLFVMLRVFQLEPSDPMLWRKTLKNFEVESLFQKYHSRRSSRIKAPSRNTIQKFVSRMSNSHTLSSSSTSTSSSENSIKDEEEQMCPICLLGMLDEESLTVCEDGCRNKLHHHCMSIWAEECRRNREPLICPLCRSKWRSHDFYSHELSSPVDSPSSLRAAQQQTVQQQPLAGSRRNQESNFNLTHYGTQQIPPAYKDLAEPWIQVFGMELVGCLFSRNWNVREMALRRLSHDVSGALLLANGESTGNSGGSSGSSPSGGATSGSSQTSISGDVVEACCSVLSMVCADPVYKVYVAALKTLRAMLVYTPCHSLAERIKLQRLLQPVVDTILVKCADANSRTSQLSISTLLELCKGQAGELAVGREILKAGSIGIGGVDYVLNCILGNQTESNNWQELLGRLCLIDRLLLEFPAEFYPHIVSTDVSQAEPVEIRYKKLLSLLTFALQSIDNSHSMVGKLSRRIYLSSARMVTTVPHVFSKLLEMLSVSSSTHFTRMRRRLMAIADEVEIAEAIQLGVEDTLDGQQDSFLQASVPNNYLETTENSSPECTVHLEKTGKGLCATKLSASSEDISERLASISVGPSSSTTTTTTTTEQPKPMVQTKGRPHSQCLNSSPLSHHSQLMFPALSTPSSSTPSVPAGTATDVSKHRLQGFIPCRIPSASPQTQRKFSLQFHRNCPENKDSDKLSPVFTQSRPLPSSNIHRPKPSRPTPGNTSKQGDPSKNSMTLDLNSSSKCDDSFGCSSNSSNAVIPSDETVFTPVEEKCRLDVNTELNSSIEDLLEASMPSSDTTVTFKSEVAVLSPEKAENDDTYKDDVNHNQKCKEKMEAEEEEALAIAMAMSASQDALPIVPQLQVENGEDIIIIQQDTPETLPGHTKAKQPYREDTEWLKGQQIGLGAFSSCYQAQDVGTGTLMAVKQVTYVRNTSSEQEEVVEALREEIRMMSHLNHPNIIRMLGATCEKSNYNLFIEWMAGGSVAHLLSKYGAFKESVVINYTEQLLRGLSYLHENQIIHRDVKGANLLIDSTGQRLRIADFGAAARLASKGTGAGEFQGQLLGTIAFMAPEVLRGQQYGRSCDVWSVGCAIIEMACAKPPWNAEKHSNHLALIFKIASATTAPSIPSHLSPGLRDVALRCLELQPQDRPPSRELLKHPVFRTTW

[23] = target: MAP3K15 (human) (UniProt Q6ZN16)
[24] = target: MAPK14 (human) (UniProt Q16539)
Chain of MAPK14 (human) (Q16539 whole entry, looked up): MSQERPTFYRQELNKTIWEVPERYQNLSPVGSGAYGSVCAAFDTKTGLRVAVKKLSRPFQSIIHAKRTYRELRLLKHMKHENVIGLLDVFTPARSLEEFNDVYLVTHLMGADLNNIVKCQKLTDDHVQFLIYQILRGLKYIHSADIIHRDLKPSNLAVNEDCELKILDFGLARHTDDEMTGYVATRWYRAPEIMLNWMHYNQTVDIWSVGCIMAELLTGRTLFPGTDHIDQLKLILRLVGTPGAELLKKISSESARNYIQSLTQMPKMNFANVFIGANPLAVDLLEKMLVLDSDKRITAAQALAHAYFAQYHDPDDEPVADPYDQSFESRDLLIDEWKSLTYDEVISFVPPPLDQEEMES

[25] = target: MAPK15 (human) (UniProt Q8TD08)
[26] = target: MAPK3 (human) (UniProt P27361)
[27] = target: MYO3B (human) (UniProt Q8WXR4)
[28] = target: PAK3 (human) (UniProt O75914)
[29] = system: PIK3CA (human), P42336 [H1047L]
[30] = target: PIP4K2C (human) (UniProt Q8TBX8)
[31] = target: PKN1 (human) (UniProt Q16512)
[32] = target: PRKCQ (human) (UniProt Q04759)
[33] = target: PRKD1 (human) (UniProt Q15139)
[34] = target: PRKX (human) (UniProt P51817)
[35] = target: RPS6KA4 KD1 (human) (UniProt O75676)
[36] = target: RPS6KA5 KD2 (human) (UniProt O75582)
[37] = target: SRPK2 (human) (UniProt P78362)
[38] = target: STK4 (human) (UniProt Q13043)
[39] = target: TBK1 (human) (UniProt Q9UHD2)
[40] = target: TLK1 (human) (UniProt Q9UKI8)
[41] = target: VRK2 (human) (UniProt Q86Y07)

Chain of CDK17 (human) (Q00537 whole entry, looked up): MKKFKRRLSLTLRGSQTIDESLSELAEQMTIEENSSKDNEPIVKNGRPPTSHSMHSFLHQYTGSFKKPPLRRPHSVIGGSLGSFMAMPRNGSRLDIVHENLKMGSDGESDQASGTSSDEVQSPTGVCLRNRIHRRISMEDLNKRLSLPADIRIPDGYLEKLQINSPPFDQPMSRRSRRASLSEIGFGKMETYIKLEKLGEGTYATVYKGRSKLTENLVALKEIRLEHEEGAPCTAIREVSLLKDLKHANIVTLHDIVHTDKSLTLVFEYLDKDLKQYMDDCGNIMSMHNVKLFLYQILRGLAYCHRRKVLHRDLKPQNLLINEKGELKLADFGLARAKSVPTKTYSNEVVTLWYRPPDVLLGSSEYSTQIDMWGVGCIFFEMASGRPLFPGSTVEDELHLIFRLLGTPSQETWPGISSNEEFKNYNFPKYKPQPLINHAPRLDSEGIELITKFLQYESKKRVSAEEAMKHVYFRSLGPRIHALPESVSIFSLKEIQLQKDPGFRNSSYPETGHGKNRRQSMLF
Chain of CDK5 (human) (Q00535 whole entry, looked up): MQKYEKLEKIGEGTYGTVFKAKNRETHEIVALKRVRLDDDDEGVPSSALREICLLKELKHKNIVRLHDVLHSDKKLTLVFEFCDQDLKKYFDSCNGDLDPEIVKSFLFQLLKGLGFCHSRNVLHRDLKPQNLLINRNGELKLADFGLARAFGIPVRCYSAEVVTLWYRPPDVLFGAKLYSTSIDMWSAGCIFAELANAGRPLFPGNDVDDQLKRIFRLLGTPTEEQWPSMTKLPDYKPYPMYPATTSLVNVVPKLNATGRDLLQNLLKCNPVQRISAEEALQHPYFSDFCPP

## CCC(=O)N1CCN(c2ccc(-n3c(=O)ccc4cnc5ccc(-c6cnc7ccccc7c6)cc5c43)cc2C(F)(F)F)CC1
[1]
  kinase still bound, per cent of control: 100%
[2]
  kinase still bound, per cent of control: 77%
[3]
  kinase still bound, per cent of control: 82%
[4]
  per cent of control: 97%
[5]
  per cent of control: 6.2%
[6]
  per cent of control: 100%
[7]
  kinase still bound, per cent of control: 65%
[8]
  kinase still bound, per cent of control: 81%
[9]
  kinase still bound, per cent of control: 100%
[10]
  kinase still bound, per cent of control: 97%
[11]
  kinase still bound, per cent of control: 71%
[12]
  kinase still bound, per cent of control: 100%
[13]
  kinase still bound, per cent of control: 88%
[14]
  kinase still bound, per cent of control: 62%
[15]
  kinase still bound, per cent of control: 90%
[16]
  kinase still bound, per cent of control: 75%
[17]
  kinase still bound, per cent of control: 60%
[18]
  kinase still bound, per cent of control: 91%
[19]
  kinase still bound, per cent of control: 65%
[20]
  kinase still bound, per cent of control: 77%
[21]
  kinase still bound, per cent of control: 80%
[22]
  kinase still bound, per cent of control: 92%
[23]
  kinase still bound, per cent of control: 100%
[24]
  kinase still bound, per cent of control: 90%
[25]
  kinase still bound, per cent of control: 79%
[26]
  kinase still bound, per cent of control: 91%
[27]
  kinase still bound, per cent of control: 100%
[28]
  kinase still bound, per cent of control: 100%
[29]
  kinase still bound, per cent of control: 2.6%
[30]
  kinase still bound, per cent of control: 58%
[31]
  kinase still bound, per cent of control: 92%
[32]
  kinase still bound, per cent of control: 91%
[33]
  kinase still bound, per cent of control: 99%
[34]
  kinase still bound, per cent of control: 83%
[35]
  kinase still bound, per cent of control: 100%
[36]
  kinase still bound, per cent of control: 100%
[37]
  kinase still bound, per cent of control: 100%
[38]
  kinase still bound, per cent of control: 7.6%
[39]
  kinase still bound, per cent of control: 93%
[40]
  kinase still bound, per cent of control: 100%
[41]
  kinase still bound, per cent of control: 100%

## CC(C)n1nc(-c2cc3cc(O)ccc3[nH]2)c2c(N)ncnc21
[1]
  kinase still bound, per cent of control: 100%
[2]
  kinase still bound, per cent of control: 29%
[3]
  kinase still bound, per cent of control: 85%
[4]
  per cent of control: 100%
[5]
  per cent of control: 69%
[6]
  per cent of control: 100%
[7]
  kinase still bound, per cent of control: 9.7%
[10]
  kinase still bound, per cent of control: 10%
[11]
  kinase still bound, per cent of control: 27%
[13]
  kinase still bound, per cent of control: 48%
[14]
  kinase still bound, per cent of control: 2.7%
[15]
  kinase still bound, per cent of control: 36%
[16]
  kinase still bound, per cent of control: 5.2%
[17]
  kinase still bound, per cent of control: 12%
[18]
  kinase still bound, per cent of control: 99%
[19]
  kinase still bound, per cent of control: 0.95%
[20]
  kinase still bound, per cent of control: 16%
[21]
  kinase still bound, per cent of control: 1.7%
[22]
  kinase still bound, per cent of control: 45%
[23]
  kinase still bound, per cent of control: 76%
[24]
  kinase still bound, per cent of control: 95%
[25]
  kinase still bound, per cent of control: 54%
[26]
  kinase still bound, per cent of control: 100%
[27]
  kinase still bound, per cent of control: 19%
[28]
  kinase still bound, per cent of control: 59%
[30]
  kinase still bound, per cent of control: 9.9%
[31]
  kinase still bound, per cent of control: 85%
[32]
  kinase still bound, per cent of control: 58%
[33]
  kinase still bound, per cent of control: 100%
[34]
  kinase still bound, per cent of control: 100%
[35]
  kinase still bound, per cent of control: 100%
[36]
  kinase still bound, per cent of control: 22%
[37]
  kinase still bound, per cent of control: 100%
[38]
  kinase still bound, per cent of control: 84%
[39]
  kinase still bound, per cent of control: 84%
[40]
  kinase still bound, per cent of control: 75%
[41]
  kinase still bound, per cent of control: 100%

## COc1ccc(-c2ccc3c(N4CCOCC4)nc(N4C[C@@H](C)O[C@@H](C)C4)nc3n2)cc1CO
[1]
  kinase still bound, per cent of control: 83%
[2]
  kinase still bound, per cent of control: 97%
[3]
  kinase still bound, per cent of control: 73%
[4]
  per cent of control: 100%
[5]
  per cent of control: 77%
[6]
  per cent of control: 100%
[7]
  kinase still bound, per cent of control: 64%
[8]
  kinase still bound, per cent of control: 97%
[9]
  kinase still bound, per cent of control: 94%
[10]
  kinase still bound, per cent of control: 100%
[11]
  kinase still bound, per cent of control: 94%
[12]
  kinase still bound, per cent of control: 100%
[13]
  kinase still bound, per cent of control: 100%
[14]
  kinase still bound, per cent of control: 96%
[15]
  kinase still bound, per cent of control: 100%
[16]
  kinase still bound, per cent of control: 100%
[17]
  kinase still bound, per cent of control: 100%
[18]
  kinase still bound, per cent of control: 90%
[19]
  kinase still bound, per cent of control: 71%
[20]
  kinase still bound, per cent of control: 96%
[21]
  kinase still bound, per cent of control: 94%
[22]
  kinase still bound, per cent of control: 100%
[23]
  kinase still bound, per cent of control: 97%
[24]
  kinase still bound, per cent of control: 99%
[25]
  kinase still bound, per cent of control: 96%
[26]
  kinase still bound, per cent of control: 100%
[27]
  kinase still bound, per cent of control: 100%
[28]
  kinase still bound, per cent of control: 100%
[29]
  kinase still bound, per cent of control: 26%
[30]
  kinase still bound, per cent of control: 87%
[31]
  kinase still bound, per cent of control: 94%
[32]
  kinase still bound, per cent of control: 100%
[33]
  kinase still bound, per cent of control: 91%
[34]
  kinase still bound, per cent of control: 100%
[35]
  kinase still bound, per cent of control: 96%
[36]
  kinase still bound, per cent of control: 100%
[37]
  kinase still bound, per cent of control: 100%
[38]
  kinase still bound, per cent of control: 100%
[39]
  kinase still bound, per cent of control: 100%
[40]
  kinase still bound, per cent of control: 94%
[41]
  kinase still bound, per cent of control: 87%
